Results reported in patent publication US10479777B2, “Herbicidal azines” (BASF SE, priority 2013, dated 2019).

Key:
Assay type in all cases: in vivo
[1] = system: Poa annua; experiment: greenhouse test, pre-emergence treatment; settings: scale from 0 to 100
Description: (§1) The culture containers used were plastic flowerpots containing loamy sand with approximately 3.0% of humus as the substrate. The seeds of the test plants were sown separately for each species.
(§2) For the pre-emergence treatment, the active ingredients, which had been suspended or emulsified in water, were applied directly after sowing by means of finely distributing nozzles. The containers were irrigated gently to promote germination and growth and subsequently covered with transparent plastic hoods until the plants had rooted. This cover caused uniform germination of the test plants, unless this had been impaired by the active ingredients. For the post-emergence treatment, the test plants were first grown to a height of 3 to 15 cm, depending on the plant habit, and only then treated with the active ingredients which had been suspended or emulsified in water. For this purpose, the test plants were either sown directly and grown in the same containers, or they were first grown separately as seedlings and transplanted into the test containers a few days prior to treatment.
(§3) Depending on the species, the plants were kept at 10-25° C. or 20-35° C., respectively. The test period extended over 2 to 4 weeks. During this time, the plants were tended, and their response to the individual treatments was evaluated.
(§4) Evaluation was carried out using a scale from 0 to 100. 100 means no emergence of the plants, or complete destruction of at least the aerial moieties, and 0 means no damage, or normal course of growth. A moderate herbicidal activity is given at values of at least 60, a good herbicidal activity is given at values of at least 70, and a very good herbicidal activity is given at values of at least 85.
(§5) The plants used in the greenhouse experiments were of the following species: […]

[2] = system: Stellaria media; experiment: greenhouse test, pre-emergence treatment; settings: scale from 0 to 100
Description: as §1, §2, §3, §4, §5

[3] = system: Abutilon theophrasti; experiment: greenhouse test, post-emergence treatment; settings: scale from 0 to 100
Description: as §1, §2, §3, §4, §5

[4] = system: Amaranthus retroflexus; experiment: greenhouse test, post-emergence treatment; settings: scale from 0 to 100
Description: as §1, §2, §3, §4, §5

[5] = system: Setaria faberi; experiment: greenhouse test, post-emergence treatment; settings: 500 g/ha, scale from 0 to 100
Description: as §1, §2, §3, §4, §5

[6] = system: Echinocloa crus-galli; experiment: greenhouse test, pre-emergence treatment; settings: 62.5 g/ha, scale from 0 to 100
Description: as §1, §2, §3, §4, §5

[7] = system: Polygonum convolvulus; experiment: greenhouse test, pre-emergence treatment; settings: 62.5 g/ha, scale from 0 to 100
Description: as §1, §2, §3, §4, §5

[8] = system: Setaria viridis; experiment: greenhouse test, pre-emergence treatment; settings: 62.5 g/ha, scale from 0 to 100
Description: as §1, §2, §3, §4, §5

[9] = system: Setaria viridis; experiment: greenhouse test, post-emergence treatment; settings: 2000 g/ha, scale from 0 to 100
Description: as §1, §2, §3, §4, §5

In the case of CC(C)(Cl)c1nc(N)nc(Nc2c(F)c(F)nc(F)c2F)n1 [Example 56], the herbicidal activity ([1]; 125 g/ha) was “very good (a very good herbicidal activity is given at values of at least 85)” and the herbicidal activity ([2]; 125 g/ha) was “very good (a very good herbicidal activity is given at values of at least 85)”.
With Nc1nc(Nc2c(F)c(F)nc(F)c2F)nc(C2CCCCC2)n1 [Example 59] the herbicidal activity ([1]; 250 g/ha) was “very good (a very good herbicidal activity is given at values of at least 85)” and the herbicidal activity ([2]; 250 g/ha) was “very good (a very good herbicidal activity is given at values of at least 85)”.
CC(c1nc(N)nc(Nc2c(F)c(F)nc(F)c2F)n1)C1CC1 (stereo not shown) [Example 60] was tested, and the herbicidal activity ([3]; 500 g/ha) was “very good (a very good herbicidal activity is given at values of at least 85)”, the herbicidal activity ([4]; 500 g/ha) was “very good (a very good herbicidal activity is given at values of at least 85)” and the herbicidal activity [5] was “very good (a very good herbicidal activity is given at values of at least 85)”.
For CC(C)(F)c1nc(N)nc(Nc2c(F)c(F)nc(F)c2F)n1 [Example 1, 6-(1-Fluoro-1-methyl-ethyl)-N4-(2,3,5,6-tetrafluoro-4-pyridyl)-1,3,5-triazine-2,4-diamine], the herbicidal activity [6] was “very good (a very good herbicidal activity is given at values of at least 85)”, the herbicidal activity [7] was “very good (a very good herbicidal activity is given at values of at least 85)” and the herbicidal activity [8] was “very good (a very good herbicidal activity is given at values of at least 85)”.
For Cc1cccnc1Nc1nc(N)nc(C(F)(F)F)n1 [Example 34], the herbicidal activity ([3]; 2000 g/ha) was “very good (a very good herbicidal activity is given at values of at least 85)”, the herbicidal activity ([4]; 2000 g/ha) was “very good (a very good herbicidal activity is given at values of at least 85)” and the herbicidal activity [9] was “very good (a very good herbicidal activity is given at values of at least 85)”.
